Assays:
[1] = Dissolution of crystalline lovastatin and lovastatin adsorbate in 0.02M hydrochloric acid; assay type: physicochemical
Procedure: 0.2 g of lovastatin was dissolved in a mixture of 10 ml trichloromethane and 40 ml diisopropyl ether. 2 g of a the SYLOID® AL1 was added to the solution. Subsequently the solvent was removed by evaporation.

[2] = Dissolution of crystalline simvastatin and simvastatin adsorbate in 0.02M hydrochloric acid; assay type: physicochemical
Procedure: 0.2 g of simvastatin was dissolved in 50 ml of dichloromethane. 2 g of a the SYLOID® AL1 was added to the solution. Subsequently the solvent was removed by evaporation. The sample was analysed using X-ray powder diffraction (XRPD). Using XRPD it was confirmed that the API in the product was amorphous. The use of dichloromethane as the solvent for simvastatin and SYLOID® AL1 as the carrier gives the adsorbate according to the invention.

[3] = crystalline solid; term defined as less or equal to 0.1 mg/ml; cited from earlier work
[4] = Dissolution of crystalline tadalafil, tadalafil adsorbate and precipitates on carriers; assay type: physicochemical; details: 20 mM phosphate buffer pH 6.9
Procedure: The carriers comprising tadalafil have been prepared as described in example 1.
0.1 g of tadalafil was dissolved in 20 ml of dichloromethane. 5 ml of the resulting solution was added to 0.25 g of a solid support (Aerosil® 380, Al2O3, MgO, TiO2). Subsequently the solvent was removed by evaporation.

Compound: CC[C@H](C)C(=O)O[C@H]1C[C@@H](C)C=C2C=C[C@H](C)[C@H](CC[C@@H]3C[C@@H](O)CC(=O)O3)[C@H]21 [Crystalline lovastatin, lovastatin]
- Amount dissolved ([1]; 2 min): 0.298 µg/mL
- Amount dissolved ([1]; 5 min): 0.403 µg/mL
- Amount dissolved ([1]; 10 min): 0.418 µg/mL
- Amount dissolved ([1]; 15 min): 0.501 µg/mL
- Amount dissolved ([1]; 25 min): 0.625 µg/mL
- Amount dissolved ([1]; 40 min): 0.523 µg/mL
- Amount dissolved ([1]; 60 min): 0.62 µg/mL
- Amount dissolved ([2]; 2 min): 0.848 µg/mL
- Amount dissolved ([2]; 5 min): 1.667 µg/mL
- Amount dissolved ([2]; 10 min): 1.853 µg/mL
- Amount dissolved ([2]; 15 min): 1.859 µg/mL
- Amount dissolved ([2]; 25 min): 2.031 µg/mL
- Amount dissolved ([2]; 40 min): 2.145 µg/mL
- Amount dissolved ([2]; 60 min): 2.175 µg/mL

Compound: CN1CC(=O)N2[C@H](c3ccc4c(c3)OCO4)c3[nH]c4ccccc4c3C[C@@H]2C1=O [Crystalline tadalafil, (6R,12aR)-6-(1,3-Benzodioxol-5-yl)-2,3,6,7,12,12a-hexahydro-2-methyl-pyrazino[1′,2′:1,6]pyrido[3,4-b]indole-1,4-dione]
- solubility in water [3]: practically insoluble in water
- Amount dissolved ([4]; 2 min): 2.9 µg/mL
- Amount dissolved ([4]; 5 min): 14.6 µg/mL
- Amount dissolved ([4]; 10 min): 24.2 µg/mL
- Amount dissolved ([4]; 15 min): 27.0 µg/mL
- Amount dissolved ([4]; 25 min): 32.9 µg/mL
- Amount dissolved ([4]; 40 min): 34.4 µg/mL
